In patent US20230192660A1 (priority 2020, published 2023):
Converted amounts (≈) assume the structure as drawn. “And” between values parts separate entries of the source, which are not always exact repeats. Equal entries are not always repeated. Where two headings read alike, the source gives them in different places.

Columns and labels:
mature SARSCoV2 M^pro = mature SARSCoV2 M^pro (Severe acute respiratory syndrome coronavirus 2, UniProt P0DTD1); test: biochemical; set-up: species or system SARS-CoV-2
Human Cathepsin B = Human Cathepsin B (Homo sapiens, UniProt P07858); test: Cathepsin B protease specificity assay (Z-LR-AMC substrate); format: biochemical
Human Cathepsin L = Human Cathepsin L (Homo sapiens, UniProt P07711); test: biochemical; details: 0.01 ng/uL Cathepsin L, pH 5.5, 2 mM DTT; read-out: IC50 HCathepsin L
MERS Mpro = MERS Mpro (Middle East respiratory syndrome-related coronavirus, UniProt K9N7C7); test: biochemical
in vitro [1] = details: human
in vitro [2] = details: mouse, plasma
in vitro [3] = details: human, Caco-2
physchem = details: aqueous buffer, kinetic from dmso stock
in vitro [4] = details: human; remark: listed apart in the source
SARS-CoV-2 mature Mpro = SARS-CoV-2 mature Mpro (Severe acute respiratory syndrome coronavirus 2, UniProt P0DTD1); format: binding; details: 3 μM Mpro, 30 μM compound
MHV M^pro = MHV M^pro (UniProt P0C6X9); test: In-vitro Mpro inhibition assay, MHV enzyme; format: biochemical, mouse hepatitis virus (MHV)
in vitro [5] = details: human, Caco-2; remark: listed apart in the source
HCoV229E Mpro = HCoV229E Mpro (Human coronavirus 229E, UniProt P0C6X1); test: biochemical
in vitro [6] = details: human plasma
SARS-CoV-2 M^pro-His6 = SARS-CoV-2 M^pro-His6 (Severe acute respiratory syndrome coronavirus 2, UniProt P0DTD1); test: biochemical; details: for inhibition at 150 µM: read-out: inhibition of enzyme activity
[7] = cited from earlier work
[8] = after a nasal dose; cited from earlier work
in vitro [9] = details: human; remark: listed apart in the source
SARSCoV2 = format: cell-based, SARS-CoV-2
[10] = not given; remark: listed apart in the source
[11] = not given; remark: listed apart in the source
Huh7 cells [12] = details: read-out: CC50 Huh7; 72h incubation
Huh7 cells [13] = details: 100 μM, Huh-7 cells
[14] = 20 nM SARSCoV2 Mpro, 30 min incubation, read-out: IC50 SARSCov2 Mpro
[15] = Example 6, read-out: IC50 against SARS-CoV-2 Mpro
[16] = 0.05 ng/uL Cathepsin B, pH 5.5, 2 mM DTT, read-out: IC50 HCathepsin B
[17] = 100 nM MHV Mpro, read-out: IC50 MHV Mpro
[18] = read-out: IC50, 100 nM mature MHV M^pro at 30° C., 100 nM enzyme, 30° C.

Sequence of MERS Mpro (K9N7C7 3248-3553 limits assumed): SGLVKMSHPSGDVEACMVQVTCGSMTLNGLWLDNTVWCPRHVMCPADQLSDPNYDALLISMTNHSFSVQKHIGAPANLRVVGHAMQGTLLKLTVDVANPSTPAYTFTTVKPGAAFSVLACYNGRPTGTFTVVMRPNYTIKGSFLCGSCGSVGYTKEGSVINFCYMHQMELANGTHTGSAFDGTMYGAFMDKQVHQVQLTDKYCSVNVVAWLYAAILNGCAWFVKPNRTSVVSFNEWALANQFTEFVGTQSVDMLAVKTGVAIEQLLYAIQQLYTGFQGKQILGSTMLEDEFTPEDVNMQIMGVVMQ
Sequence of Human Cathepsin L (P07711 114-333): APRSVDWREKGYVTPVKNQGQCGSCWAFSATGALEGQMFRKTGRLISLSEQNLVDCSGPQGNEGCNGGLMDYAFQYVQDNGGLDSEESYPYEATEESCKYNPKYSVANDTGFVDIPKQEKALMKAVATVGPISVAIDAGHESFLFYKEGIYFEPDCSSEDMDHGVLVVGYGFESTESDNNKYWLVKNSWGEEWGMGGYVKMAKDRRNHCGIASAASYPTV
Sequence of MHV M^pro (P0C6X9 3334-3635): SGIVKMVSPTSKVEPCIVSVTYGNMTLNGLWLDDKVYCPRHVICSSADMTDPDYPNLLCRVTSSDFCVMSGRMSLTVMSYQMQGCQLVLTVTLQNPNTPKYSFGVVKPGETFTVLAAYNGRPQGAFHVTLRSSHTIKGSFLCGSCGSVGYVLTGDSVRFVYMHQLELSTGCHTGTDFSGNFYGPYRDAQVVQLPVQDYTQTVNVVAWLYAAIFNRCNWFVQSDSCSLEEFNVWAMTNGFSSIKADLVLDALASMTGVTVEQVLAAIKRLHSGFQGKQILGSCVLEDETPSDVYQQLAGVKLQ
Sequence of HCoV229E Mpro (P0C6X1 2966-3267): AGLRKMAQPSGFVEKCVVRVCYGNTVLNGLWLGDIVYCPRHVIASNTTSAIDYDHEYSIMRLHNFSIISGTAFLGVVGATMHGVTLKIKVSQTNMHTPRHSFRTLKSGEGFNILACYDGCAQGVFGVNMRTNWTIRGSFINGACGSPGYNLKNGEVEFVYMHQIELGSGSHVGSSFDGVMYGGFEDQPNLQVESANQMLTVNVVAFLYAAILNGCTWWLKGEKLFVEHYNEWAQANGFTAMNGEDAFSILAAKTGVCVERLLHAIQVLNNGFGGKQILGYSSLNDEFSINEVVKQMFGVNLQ

| Compound | IC50 (mature SARSCoV2 M^pro; [14]) [nM] | IC50 (Human Cathepsin B; [16]) [µM] | IC50 (Human Cathepsin L) [nM] | IC50 (MERS Mpro) [nM] | CC50 (in vitro [1]) [µM] | half-life (in vitro [2]) [min] | solubility kinetic (physchem) [µM] | CC50 (in vitro [4]) [µM] | ΔTm Mpro (SARS-CoV-2 mature Mpro) [°C] | Plasma Stability Human T1/2 | IC50 (MHV M^pro; [17]) [nM] | Papp A→B (in vitro [5]) [×10⁻⁶ cm/s] | Papp B→A (in vitro [5]) [×10⁻⁶ cm/s] | IC50 (HCoV229E Mpro) [nM] | also measured |
| --- | --- | --- | --- | --- | --- | --- | --- | --- | --- | --- | --- | --- | --- | --- | --- |
| COc1cccc2[nH]c(C(=O)N3C[C@H]4[C@@H]([C@H]3C(=O)N[C@@H](C[C@@H]3CCNC3=O)C(=O)C(N)=O)C4(C)C)cc12 [ML105] | 20 | 0.7 | 300 | 340 | > 100 | 20 | 80 (≈ 40.8 µg/mL) | > 100 | 18.6 | ∞ | 60 | < 0.2 | 0.3 | 10 | IC50 (mature SARSCoV2 M^pro; [15]): < 50 nM; CC50 (in vitro [3]): > 100 µM |
| CNC(=O)C(=O)[C@H](C[C@@H]1CCNC1=O)NC(=O)[C@@H]1[C@@H]2[C@H](CN1C(=O)[C@@H](NC(=O)C13CC(C1)C3)C(C)(C)C)C2(C)C [ML1002m] | 20 | – | – | 250 | > 100 | 170 | > 100 | > 100 | 21 | – | – | 0.4 | 0.7 | 400 | – |
| CC1(C)[C@@H]2[C@@H](C(=O)NC(C[C@@H]3CCNC3=O)C(=O)C(N)=O)N(C(=O)CNc3c(F)cc(F)cc3F)C[C@@H]21 (stereo partly drawn) [ML104] | – | 17 | 11000 | 190 | > 100 | 100 | 86 (≈ 45 µg/mL) | > 100 | 17.5 | ∞ | 250 | < 0.2 | 0.9 | 440 | IC50 (mature SARSCoV2 M^pro; [15]): < 50 nM and 30 nM; CC50 (in vitro [3]): > 100 µM |
| CC(C)(C)CC(=O)N[C@H](C(=O)N1C[C@H]2[C@@H]([C@H]1C(=O)NC(C[C@@H]1CCNC1=O)C(=O)C(N)=O)C2(C)C)C(C)(C)C (stereo partly drawn) [ML1001] | – | 42 | 33000 | 260 | > 100 | 26 | 66 (≈ 36.1 µg/mL) | > 100 | 21.6 | – | 70 | < 0.2 | 0.5 | 500 | half-life (in vitro [6]): 330 min; CC50 (in vitro [3]): > 100 µM |
| CCN(CC)C(=S)SSC(=S)N(CC)CC [disulfiram] | – | – | – | – | – | – | – | – | – | – | – | – | – | – | inhibition at 150 µM (SARS-CoV-2 M^pro-His6): < 50% |
| O=c1c2ccccc2[se]n1-c1ccccc1 [ebselen] | – | – | – | – | – | – | – | – | – | – | – | – | – | – | inhibition at 150 µM (SARS-CoV-2 M^pro-His6): < 50% |
| CCC[C@H](NC(=O)[C@@H]1[C@H]2CCC[C@H]2CN1C(=O)[C@@H](NC(=O)[C@@H](NC(=O)c1cnccn1)C1CCCCC1)C(C)(C)C)C(=O)C(=O)NC1CC1 [Telaprevir, telaprevir, reference compound] | – | – | 25000 | – | 10 to 100 | – | – | 10 to 100 | – | – | – | – | – | – | IC50 (Human Cathepsin B): 36 µM; peak plasma concentration ([7]; after a maximal 750 mg dose): 5 µM |
| CCOC(=O)/C=C/[C@H](C[C@@H]1CCNC1=O)NC(=O)[C@@H](CC(=O)[C@@H](NC(=O)c1cc(C)on1)C(C)C)Cc1ccc(F)cc1 [rupintrivir] | – | – | – | – | – | – | – | – | – | – | – | – | – | – | concentration on nasal surfaces [8]: 5 µM |
| CC1(C)[C@@H]2[C@@H](C(=O)N[C@@H](C[C@@H]3CCNC3=O)C(=O)C(N)=O)N(C(=O)CCc3ccccc3)C[C@@H]21 [ML102] | 90 | 2.2 | 800 | 1200 | > 100 | 18 | 83 (≈ 38.9 µg/mL) | > 100 | 15.5 | ∞ | 980 | < 0.2 | 0.7 | 290 | – |
| CC(C)(C)NC(=O)N[C@H](C(=O)N1C[C@H]2[C@@H]([C@H]1C(=O)NC(CC1CCC1)C(=O)C(N)=O)C2(C)C)C(C)(C)C (stereo partly drawn) [Boceprevir, boceprevir, reference compound] | – | 4.5 | 400 | – | – | 28 | 73 (≈ 37.9 µg/mL) | – | – | – | 15000 | 2 | 29 | – | half-life (in vitro [6]): 495 min; CC50 (in vitro [3]): > 100 µM; peak plasma concentration ([7]; after a maximal 800 mg oral dose): 3 µM; CC50 (in vitro [9]): > 100 µM; IC50 (MHV M^pro; [18]): 15000 ± 7000 nM |
| CNC(=O)C(=O)[C@H](C[C@@H]1CCNC1=O)NC(=O)[C@@H]1[C@@H]2[C@H](CN1C(=O)CCc1ccccc1)C2(C)C [ML102m] | 120 | – | – | 1100 | > 100 | 45 | > 100 | > 100 | 15.2 | – | – | 0.4 | 1.8 | 720 | – |
| CNC(=O)C(=O)[C@H](C[C@@H]1CCNC1=O)NC(=O)[C@@H]1[C@@H]2[C@H](CN1C(=O)CNc1c(F)cc(F)cc1F)C2(C)C [ML104m] | – | – | – | 290 | > 100 | 81 | 98 (≈ 52.7 µg/mL) | > 100 | 17.1 | – | – | 0.5 | 2.5 | 230 | – |
| CC(C)c1nc(CN(C)C(=O)N[C@H](C(=O)N[C@@H](Cc2ccccc2)C[C@H](O)[C@H](Cc2ccccc2)NC(=O)OCc2cncs2)C(C)C)cs1 [ritonavir] | – | – | – | – | – | – | – | – | – | – | – | – | – | – | inhibition at 150 µM (SARS-CoV-2 M^pro-His6; 150 μM drug, 2 mM DTT, 100 nM M^pro-His6): < 50%; inhibition of M^pro activity (SARS-CoV-2 M^pro-His6; 150 μM, absence of DTT (air-equilibrated buffer)): no inhibitory effect |
| CC(C)(C)[C@H](NC(=O)C12CC(C1)C2)C(=O)N1C[C@H]2[C@@H]([C@H]1C(=O)N[C@@H](C[C@@H]1CCNC1=O)C(=O)C(N)=O)C2(C)C [ML1002] | 20 | – | – | 190 | > 100 | 21 | > 100 | > 100 | 21.6 | – | – | < 0.2 | < 0.2 | 260 | IC50 (mature SARSCoV2 M^pro; [15]): < 50 nM |
| CC(C)C[C@H](NC(=O)OCc1ccccc1)C(=O)N[C@@H](CC1CCNC1=O)C(O)S(=O)(=O)[O-].[Na+] (stereo partly drawn) [GC-376, reference compound] | – | 0.001 | 1 | – | – | – | – | – | – | 95 min | 50 | – | – | – | EC50 (SARSCoV2; read-out: EC50): 0.1 nM; Plasma Stability Mouse T1/2 [10]: 232 min; Caco-2 Permeability Papp A-B (Caco-2; A-B): <0.3 10-6 cm/s; Caco-2 Permeability Papp B-A (Caco-2): 5 10-6 cm/s; Kinetic Solubility in PBS [11]: 71 µM; CC50 (Huh7 cells [12]): > 100 µM; IC50 (MHV M^pro; [18]): 67 nM |
| CC(C)(C)NC(=O)N[C@H](C(=O)N1C[C@H]2[C@@H]([C@H]1C(=O)N[C@@H](C[C@@H]1CCNC1=O)C(=O)C(N)=O)C2(C)C)C(C)(C)C [ML1000] | – | 5.9 | 3200 | – | – | – | – | – | – | 109 min | – | – | – | 130 | EC50 (SARSCoV2; read-out: EC50: 50% effective antiviral concentration): 100 nM; IC50 (MERS Mpro; read-out: IC50 MERS Mpro): 530 nM; Plasma Stability Mouse T1/2 [10]: 23 min; Caco-2 Permeability Papp B-A (Caco-2): 0.4 10-6 cm/s; Caco-2 Permeability Papp A-B (Caco-2; Caco-2): <0.2 10-6 cm/s; Kinetic Solubility in PBS [11]: 87 µM; CC50 (Huh7 cells [12]): > 100 µM; cytotoxicity at the highest dose tested (Huh7 cells [13]): no cytotoxicity |
